Assays:
Test in all cases: relative viability (nuclei count vs DMSO), 5 days (fraction); higher = more cells survive
[1] = compound: C1CC2=C(C1)C=C(C=C2)OC3=NC(=C4C(=N3)N(C=N4)CC5=CC=C(C=C5)C6=CC=CC=C6)N[C@@H](CC7=CC=CC=C7)CO [QS11] + NC(=O)Nc1cc(-c2cccc(F)c2)sc1C(=O)N[C@H]1CCCNC1 [AZD7762] (partner 0.2 µM)
Summary of the method: (§1)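 The day after seeding in 1536-well plates, lung cancer cell lines were treated by pin tool with a single drug, or with a fixed anchor-drug dose together with five library-drug doses (not always all listed) in √10 steps. After 5 days, a combined fix-and-stain solution (final 0.05% Triton X-100, 1% formaldehyde, 1 ug/ml Hoechst) was added. Nuclei counted on 4× images gave relative viability as treated counts over vehicle counts, reported as the median of duplicate plates.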

[2] = compound: C1CC2=C(C1)C=C(C=C2)OC3=NC(=C4C(=N3)N(C=N4)CC5=CC=C(C=C5)C6=CC=CC=C6)N[C@@H](CC7=CC=CC=C7)CO [QS11] + Nc1ncn([C@H]2C[C@H](O)[C@@H](CO)O2)c(=O)n1 [Decitabine] (partner 2 µM)
Summary of the method: as §1

[3] = compound: CC1=C(C=C(C=C1)NC(=O)C2=CC(=CC=C2)C(C)(C)C#N)NC3=CC4=C(C=C3)N=CN(C4=O)C [AZ628] + Cc1nc(NC(=O)N2CCC[C@H]2C(N)=O)sc1-c1ccnc(C(C)(C)C(F)(F)F)c1 [Alpelisib] (partner 2 µM)
Summary of the method: as §1

[4] = compound: C[As](C)SC[C@H](NC(=O)CC[C@H](N)C(=O)O)C(=O)NCC(=O)O [Darinaparsin] + CCNC(=O)c1noc(-c2cc(C(C)C)c(O)cc2O)c1-c1ccc(CN2CCOCC2)cc1 [Luminespib] (partner 0.01 µM)
Summary of the method: as §1

[5] = compound: C[As](C)SC[C@H](NC(=O)CC[C@H](N)C(=O)O)C(=O)NCC(=O)O [Darinaparsin] + C[C@]1(O)C[C@@H](c2nc(-c3ccc4ccc(-c5ccccc5)nc4c3)c3c(N)nccn32)C1 [Linsitinib] (partner 1 µM)
Summary of the method: as §1

## LCLC-97TM1
[1]; first compound 0.253 µM
  relative viability: 0.192
[1]; first compound 2.53 µM
  relative viability: 0.27
[1]; first compound 8 µM
  relative viability: 0.418
[2]; first compound 0.253 µM
  relative viability: 0.213
[2]; first compound 2.53 µM
  relative viability: 0.257
[2]; first compound 8 µM
  relative viability: 0.219
[3]; first compound 0.08 µM
  relative viability: 0.279
[3]; first compound 0.253 µM
  relative viability: 0.205
[3]; first compound 0.8 µM
  relative viability: 0.195
[3]; first compound 2.53 µM
  relative viability: 0.232
[3]; first compound 8 µM
  relative viability: 0.118
[4]; first compound 0.08 µM
  relative viability: 0.939
[4]; first compound 0.8 µM
  relative viability: 0.659
[4]; first compound 2.53 µM
  relative viability: 0.699
[4]; first compound 8 µM
  relative viability: 0.888
[5]; first compound 0.08 µM
  relative viability: 0.162
[5]; first compound 0.8 µM
  relative viability: 0.164
[5]; first compound 2.53 µM
  relative viability: 0.173
[5]; first compound 8 µM
  relative viability: 0.178
